Test results: ChEMBL document CHEMBL5214948, “Boronic Acid: A Novel Pharmacophore Targeting Src Homology 2 (SH2) Domain of STAT3” (J Med Chem, 2022)
Active and inactive are the calls of the source.

How the values were obtained:
MGC-803 [1] = assay: Inhibition of cell migration in human MGC-803 cells assessed as cell migration incubated for 24 hrs by microscopy based by scratch wound healing assay; type: functional; conditions: dose 1-3 µM, DDE = dose-dependent effect
AGS [2] = assay: Inhibition of cell migration in human AGS cells assessed as cell migration incubated for 24 hrs by microscopy based by scratch wound healing assay; type: functional; conditions: dose 1-3 µM, DDE = dose-dependent effect
AGS [3] = assay: Inhibition of cell invasion in human AGS cells measured after 24 hrs by crystal violet staining based imaging transwell assay; type: functional; conditions: dose 1-3 µM, DDE = dose-dependent effect
MGC-803 [4] = assay: Inhibition of cell invasion in human MGC-803 cells measured after 24 hrs by crystal violet staining based imaging transwell assay; type: functional; conditions: DDE = dose-dependent effect
MGC-803 [5] = assay: Antitumor activity against human MGC-803 cells xenografted in ip dosed BALB/c nude mouse assessed as supression of tumor growth measured every day for 20 days; type: functional, organism-based; conditions: dose 5-15 mg/kg, time 20.0 day, DDE = dose-dependent effect
MGC-803 [6] = assay: Antitumor activity against human MGC-803 cells xenografted in BALB/c nude mouse assessed as tumor growth inhibition at 5 mg/kg, ip measured every day for 20 days; type: functional; set-up: scale not given: the % may be the effect or the level left; conditions: time 20 day
MGC-803 [7] = assay: Antitumor activity against human MGC-803 cells xenografted in BALB/c nude mouse assessed as tumor growth inhibition at 15 mg/kg, ip measured every day for 20 days; type: functional; set-up: scale not given: the % may be the effect or the level left; conditions: time 20 day
[8] = Toxicity in BALB/c nude mouse xenografted with MGC-803 cells assessed as effect on body weight at 15 mg/kg, ip measured every day for 20 days; type: organism-based; conditions: in vivo, 480 h, time 20 day
[9] = Toxicity in BALB/c nude mouse xenografted with MGC-803 cells assessed as effect on body weight at 5 mg/kg, ip measured every day for 20 days; type: organism-based; conditions: in vivo, 480 h, time 20 day
MGC-803 [10] = assay: Antitumor activity against human MGC-803 cells xenografted in BALB/c nude mouse assessed as reduction in phosphorylated STAT3 at Y705 residue at 15 mg/kg, ip measured every day for 20 days by immunohistochemical analysis; type: functional, organism-based; conditions: time 20.0 day
MGC-803 [11] = assay: Antitumor activity against human MGC-803 cells xenografted in BALB/c nude mouse assessed as reduction in phosphorylated STAT3 at Y705 residue at 5 mg/kg, ip measured every day for 20 days by immunohistochemical analysis; type: functional, organism-based; conditions: time 20.0 day
MGC-803 [12] = assay: Antitumor activity against human MGC-803 cells xenografted in BALB/c nude mouse assessed as reduction in Ki67 expression at 15 mg/kg, ip measured every day for 20 days by immunohistochemical analysis; type: functional, organism-based; conditions: time 20.0 day
MGC-803 [13] = assay: Antitumor activity against human MGC-803 cells xenografted in BALB/c nude mouse assessed as reduction in Ki67 expression at 5 mg/kg, ip measured every day for 20 days by immunohistochemical analysis; type: functional, organism-based; conditions: time 20.0 day
MGC-803 [14] = assay: Antitumor activity against human MGC-803 cells xenografted in BALB/c nude mouse assessed as reduction in tumor progression at 5 mg/kg, ip measured every day for 20 days by immunohistochemical analysis; type: functional, organism-based; conditions: time 20.0 day
MGC-803 [15] = assay: Antitumor activity against human MGC-803 cells xenografted in BALB/c nude mouse assessed as reduction in tumor progression at 15 mg/kg, ip measured every day for 20 days by immunohistochemical analysis; type: functional, organism-based; conditions: time 20.0 day
MGC-803 [16] = assay: Antitumor activity against human MGC-803 cells xenografted in BALB/c nude mouse assessed as reduction in tumor cells at 5 mg/kg, ip measured every day for 20 days by immunohistochemical analysis; type: functional, organism-based; conditions: time 20.0 day
MGC-803 [17] = assay: Antitumor activity against human MGC-803 cells xenografted in BALB/c nude mouse assessed as reduction in tumor cells at 15 mg/kg, ip measured every day for 20 days by immunohistochemical analysis; type: functional, organism-based; conditions: time 20.0 day
MGC-803 [18] = assay: Antitumor activity against human MGC-803 cells xenografted in BALB/c nude mouse assessed as reduction in c-myc expression at 15 mg/kg, ip measured every day for 20 days by immunohistochemical analysis; type: functional, organism-based; conditions: time 20.0 day
MGC-803 [19] = assay: Antitumor activity against human MGC-803 cells xenografted in BALB/c nude mouse assessed as reduction in c-myc expression at 5 mg/kg, ip measured every day for 20 days by immunohistochemical analysis; type: functional, organism-based; conditions: time 20.0 day
MGC-803 [20] = assay: Antitumor activity against human MGC-803 cells xenografted in BALB/c nude mouse assessed as reduction in Bcl-xL expression at 15 mg/kg, ip measured every day for 20 days by immunohistochemical analysis; type: functional, organism-based; conditions: time 20.0 day
MGC-803 [21] = assay: Antitumor activity against human MGC-803 cells xenografted in BALB/c nude mouse assessed as reduction in Bcl-xL expression at 5 mg/kg, ip measured every day for 20 days by immunohistochemical analysis; type: functional, organism-based; conditions: time 20.0 day
[22] = Toxicity in nude BALB/c nude mouse xenografted with human MGC-803 cells assessed as morphological changes in heart at 5 to 15 mg/kg, ip measured every day for 20 days by H and E staining based assay; type: organism-based; conditions: in vivo, 480 h, time 20 day
[23] = Toxicity in nude BALB/c nude mouse xenografted with human MGC-803 cells assessed as morphological changes in liver at 5 to 15 mg/kg, ip measured every day for 20 days by H and E staining based assay; type: organism-based; conditions: in vivo, 480 h, time 20 day
[24] = Toxicity in nude BALB/c nude mouse xenografted with human MGC-803 cells assessed as morphological changes in lung at 5 to 15 mg/kg, ip measured every day for 20 days by H and E staining based assay; type: organism-based; conditions: in vivo, 480 h, time 20 day
[25] = Toxicity in nude BALB/c nude mouse xenografted with human MGC-803 cells assessed as morphological changes in kidney at 5 to 15 mg/kg, ip measured every day for 20 days by H and E staining based assay; type: organism-based; conditions: in vivo, 480 h, time 20 day
[26] = Toxicity in nude BALB/c nude mouse xenografted with human MGC-803 cells assessed as morphological changes in spleen at 5 to 15 mg/kg, ip measured every day for 20 days by H and E staining based assay; type: organism-based; conditions: in vivo, 480 h, time 20 day
[27] = biological target: Signal transducer and activator of transcription 3 (Homo sapiens, UniProt P40763); assay: Inhibition of STAT3 at Y705 residue phosphorylation at in human MGC-803 cells at 5 uM pretreated for 48 hrs followed by compound washout and measured after 72 hrs by immunoblotting analysis
Chain of Signal transducer and activator of transcription 3 (P40763 whole entry, looked up): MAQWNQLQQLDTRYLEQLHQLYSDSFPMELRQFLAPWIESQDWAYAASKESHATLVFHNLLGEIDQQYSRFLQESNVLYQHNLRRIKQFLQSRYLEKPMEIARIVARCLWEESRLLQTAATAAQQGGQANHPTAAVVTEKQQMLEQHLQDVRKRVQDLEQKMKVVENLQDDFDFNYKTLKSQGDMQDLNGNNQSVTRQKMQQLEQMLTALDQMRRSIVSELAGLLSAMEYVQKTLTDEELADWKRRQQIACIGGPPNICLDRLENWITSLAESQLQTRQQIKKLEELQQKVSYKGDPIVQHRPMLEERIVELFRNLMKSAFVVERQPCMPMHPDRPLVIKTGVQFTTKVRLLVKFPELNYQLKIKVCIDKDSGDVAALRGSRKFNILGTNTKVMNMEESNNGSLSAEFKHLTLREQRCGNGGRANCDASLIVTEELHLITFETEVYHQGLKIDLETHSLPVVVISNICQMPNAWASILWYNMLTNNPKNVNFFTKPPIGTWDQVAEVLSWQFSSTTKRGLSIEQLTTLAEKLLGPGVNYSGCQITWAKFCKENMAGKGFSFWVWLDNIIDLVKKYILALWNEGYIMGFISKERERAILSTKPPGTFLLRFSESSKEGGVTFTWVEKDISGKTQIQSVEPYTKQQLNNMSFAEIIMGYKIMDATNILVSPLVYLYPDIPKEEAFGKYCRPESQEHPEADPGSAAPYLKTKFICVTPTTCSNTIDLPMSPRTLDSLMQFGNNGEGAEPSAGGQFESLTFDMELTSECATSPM

CN(CC(=O)N(Cc1ccc(C2CCCCC2)cc1)c1ccc(B(O)O)cc1)S(=O)(=O)c1c(F)c(F)c(F)c(F)c1F
Non-Toxic: Activity [8] | Activity [9] | Activity [22] | Activity [23] | Activity [24] | Activity [25] | Activity [26]
active: inhibition (MGC-803 [1]) Dde | inhibition (AGS [2]) Dde | inhibition (AGS [3]) Dde | inhibition (MGC-803 [4]) Dde | Activity (MGC-803 [5]) Dde | Activity (MGC-803 [10]) | Activity (MGC-803 [11]) | Activity (MGC-803 [12]) | Activity (MGC-803 [13]) | Activity (MGC-803 [14]) | Activity (MGC-803 [15]) | Activity (MGC-803 [16]) | Activity (MGC-803 [17]) | Activity (MGC-803 [18]) | Activity (MGC-803 [19]) | Activity (MGC-803 [20]) | Activity (MGC-803 [21]) | inhibition [27]
79.13%: Activity (MGC-803 [7])
65.14%: Activity (MGC-803 [6])
